Legend:
Assay type in all cases: cell-based
Ba/F3 cells with EGFR WT = molecular target: T1, Ba/F3 cells with EGFR WT (Homo sapiens, UniProt P00533); test: EGFR activity: Ba/F3 cell viability (CellTiter-Glo, 72 h), EGFR WT; conditions: read-out: BaF3 WT IC50
T1 construct: expressed in transfected cells; host or cells: Ba/F3 (murine pro-B cells), retroviral transduction, puromycin selection, maintained with EGF

[1] = molecular target: T2, Ba/F3 cells with EGFR exon 20 NPG Ins D770_N771 (Homo sapiens, UniProt P00533, INS770NPG); test: EGFR activity: Ba/F3 cell viability (CellTiter-Glo, 72 h), EGFR exon 20 NPG insertion; conditions: EGFR exon 20 NPG Ins D770_N771, cell viability, read-out: BaF3 NPG IC50
T2 construct: expressed in transfected cells; host or cells: Ba/F3 (murine pro-B cells), retroviral transduction, puromycin selection, IL3-independent pool

[2] = molecular target: T3, pEGFR in Ba/F3 cells expressing EGFR exon 20 NPG Ins D770_N771 (Homo sapiens, UniProt P00533, INS770NPG); test: Inhibitor activity on EGFR phosphorylation (pEGFR AlphaLISA, 2 h), Ba/F3 EGFR exon 20 NPG insertion; conditions: Ba/F3 EGFR exon 20 NPG Ins D770_N771
T3 construct: expressed in transfected cells; host or cells: Ba/F3 (murine pro-B cells), retroviral transduction, puromycin selection, IL3-independent pool

[3] = molecular target: T4, Ba/F3 cells with EGFR exon 20 ASV Ins V769_D770 (Homo sapiens, UniProt P00533, INS769ASV); test: EGFR activity: Ba/F3 cell viability (CellTiter-Glo, 72 h), EGFR exon 20 ASV insertion; conditions: EGFR exon 20 ASV Ins V769_D770, cell viability, read-out: BaF3 ASV IC50
T4 construct: expressed in transfected cells; host or cells: Ba/F3 (murine pro-B cells), retroviral transduction, puromycin selection, IL3-independent pool

pEGFR in CUTO14 cells = molecular target: T5, pEGFR in CUTO14 cells (Homo sapiens, UniProt P00533, DUP767-769); test: Inhibitor activity on EGFR phosphorylation (pEGFR AlphaLISA, 2 h), CUTO14 cells
T5 construct: endogenous in cells; host or cells: CUTO14 cells
Protocol: CUTO14 cells were obtained from Dr. Robert C. Doebele at the University of Colorado.
Shake 350 rpm for 1 hr in the dark • 3.4 Prepare donor mix under low light conditions prior to use. Dispense 5 μL of donor mix to all the wells. Mix well on the shaker, seal and wrap in aluminum foil and incubate 1.5 hrs at room temperature in the dark • 3.5 Transfer 18.5 μL mixture to OptiPlate 384, and read using an Envision.

T1 sequence (P00533 25-1210): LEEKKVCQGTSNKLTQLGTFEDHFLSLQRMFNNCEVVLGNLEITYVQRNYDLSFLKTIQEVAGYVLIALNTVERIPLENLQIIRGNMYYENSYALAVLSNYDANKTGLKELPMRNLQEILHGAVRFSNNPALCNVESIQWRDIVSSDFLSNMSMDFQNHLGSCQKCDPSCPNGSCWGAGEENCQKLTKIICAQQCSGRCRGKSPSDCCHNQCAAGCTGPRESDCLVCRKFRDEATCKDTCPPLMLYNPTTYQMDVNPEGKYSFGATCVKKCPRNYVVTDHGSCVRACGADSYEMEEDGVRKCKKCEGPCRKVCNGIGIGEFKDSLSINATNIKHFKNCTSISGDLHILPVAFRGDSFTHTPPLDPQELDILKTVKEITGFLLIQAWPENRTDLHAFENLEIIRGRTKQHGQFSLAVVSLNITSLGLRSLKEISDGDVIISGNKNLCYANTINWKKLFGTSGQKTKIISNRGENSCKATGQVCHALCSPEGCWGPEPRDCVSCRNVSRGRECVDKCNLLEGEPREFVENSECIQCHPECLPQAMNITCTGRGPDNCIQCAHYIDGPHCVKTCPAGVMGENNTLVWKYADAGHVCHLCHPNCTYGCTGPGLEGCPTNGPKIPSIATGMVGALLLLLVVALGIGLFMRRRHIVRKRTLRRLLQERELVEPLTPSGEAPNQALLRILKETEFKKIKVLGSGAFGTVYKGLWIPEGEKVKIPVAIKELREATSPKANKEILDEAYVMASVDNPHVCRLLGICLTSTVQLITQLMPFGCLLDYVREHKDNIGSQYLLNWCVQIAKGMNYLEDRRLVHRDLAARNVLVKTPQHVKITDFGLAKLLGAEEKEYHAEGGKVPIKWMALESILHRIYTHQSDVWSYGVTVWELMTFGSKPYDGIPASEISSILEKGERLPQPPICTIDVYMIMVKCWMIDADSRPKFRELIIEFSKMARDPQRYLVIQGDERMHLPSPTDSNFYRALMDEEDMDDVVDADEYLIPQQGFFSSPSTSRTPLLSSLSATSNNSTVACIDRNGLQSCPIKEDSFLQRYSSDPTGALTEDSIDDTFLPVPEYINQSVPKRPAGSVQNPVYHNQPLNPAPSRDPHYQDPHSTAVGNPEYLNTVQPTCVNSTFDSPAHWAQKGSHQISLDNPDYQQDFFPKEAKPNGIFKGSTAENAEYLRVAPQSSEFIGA
T4 sequence (P00533 with tags, fused parts or gaps INS769ASV): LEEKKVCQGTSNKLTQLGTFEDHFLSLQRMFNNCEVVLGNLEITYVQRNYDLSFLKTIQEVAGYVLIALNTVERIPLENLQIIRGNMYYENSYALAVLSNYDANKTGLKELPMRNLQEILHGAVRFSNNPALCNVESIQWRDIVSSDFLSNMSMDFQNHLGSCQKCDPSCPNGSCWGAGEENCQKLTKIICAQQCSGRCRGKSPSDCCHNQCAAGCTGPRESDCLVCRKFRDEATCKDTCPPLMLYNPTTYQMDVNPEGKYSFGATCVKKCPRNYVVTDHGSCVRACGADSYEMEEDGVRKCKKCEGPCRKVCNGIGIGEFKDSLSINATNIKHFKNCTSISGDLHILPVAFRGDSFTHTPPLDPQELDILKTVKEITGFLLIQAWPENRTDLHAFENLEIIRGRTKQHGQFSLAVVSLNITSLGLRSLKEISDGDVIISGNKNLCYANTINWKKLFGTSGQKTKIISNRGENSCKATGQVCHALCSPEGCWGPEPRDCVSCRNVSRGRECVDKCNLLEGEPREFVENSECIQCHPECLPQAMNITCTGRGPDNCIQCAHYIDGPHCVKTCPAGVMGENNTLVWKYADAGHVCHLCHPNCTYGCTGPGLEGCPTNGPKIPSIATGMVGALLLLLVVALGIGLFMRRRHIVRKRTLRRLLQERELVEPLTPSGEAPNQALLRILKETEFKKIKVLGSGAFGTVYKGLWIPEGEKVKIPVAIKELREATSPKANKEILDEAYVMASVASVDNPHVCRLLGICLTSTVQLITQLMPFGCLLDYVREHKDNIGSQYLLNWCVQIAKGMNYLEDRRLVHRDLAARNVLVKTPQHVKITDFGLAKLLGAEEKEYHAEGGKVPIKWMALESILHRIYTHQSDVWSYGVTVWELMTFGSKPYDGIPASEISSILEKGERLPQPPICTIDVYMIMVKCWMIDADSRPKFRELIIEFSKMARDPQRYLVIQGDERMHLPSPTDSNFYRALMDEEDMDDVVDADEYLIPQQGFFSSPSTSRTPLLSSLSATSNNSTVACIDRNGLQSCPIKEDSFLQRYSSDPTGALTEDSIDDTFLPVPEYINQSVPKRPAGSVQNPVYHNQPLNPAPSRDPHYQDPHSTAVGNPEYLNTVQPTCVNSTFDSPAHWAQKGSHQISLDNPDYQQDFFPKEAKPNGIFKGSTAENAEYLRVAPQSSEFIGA
T5 sequence (P00533 with tags, fused parts or gaps DUP767-769): as the sequence (P00533 with tags, fused parts or gaps INS769ASV) above
T3 sequence (P00533 with tags, fused parts or gaps INS770NPG): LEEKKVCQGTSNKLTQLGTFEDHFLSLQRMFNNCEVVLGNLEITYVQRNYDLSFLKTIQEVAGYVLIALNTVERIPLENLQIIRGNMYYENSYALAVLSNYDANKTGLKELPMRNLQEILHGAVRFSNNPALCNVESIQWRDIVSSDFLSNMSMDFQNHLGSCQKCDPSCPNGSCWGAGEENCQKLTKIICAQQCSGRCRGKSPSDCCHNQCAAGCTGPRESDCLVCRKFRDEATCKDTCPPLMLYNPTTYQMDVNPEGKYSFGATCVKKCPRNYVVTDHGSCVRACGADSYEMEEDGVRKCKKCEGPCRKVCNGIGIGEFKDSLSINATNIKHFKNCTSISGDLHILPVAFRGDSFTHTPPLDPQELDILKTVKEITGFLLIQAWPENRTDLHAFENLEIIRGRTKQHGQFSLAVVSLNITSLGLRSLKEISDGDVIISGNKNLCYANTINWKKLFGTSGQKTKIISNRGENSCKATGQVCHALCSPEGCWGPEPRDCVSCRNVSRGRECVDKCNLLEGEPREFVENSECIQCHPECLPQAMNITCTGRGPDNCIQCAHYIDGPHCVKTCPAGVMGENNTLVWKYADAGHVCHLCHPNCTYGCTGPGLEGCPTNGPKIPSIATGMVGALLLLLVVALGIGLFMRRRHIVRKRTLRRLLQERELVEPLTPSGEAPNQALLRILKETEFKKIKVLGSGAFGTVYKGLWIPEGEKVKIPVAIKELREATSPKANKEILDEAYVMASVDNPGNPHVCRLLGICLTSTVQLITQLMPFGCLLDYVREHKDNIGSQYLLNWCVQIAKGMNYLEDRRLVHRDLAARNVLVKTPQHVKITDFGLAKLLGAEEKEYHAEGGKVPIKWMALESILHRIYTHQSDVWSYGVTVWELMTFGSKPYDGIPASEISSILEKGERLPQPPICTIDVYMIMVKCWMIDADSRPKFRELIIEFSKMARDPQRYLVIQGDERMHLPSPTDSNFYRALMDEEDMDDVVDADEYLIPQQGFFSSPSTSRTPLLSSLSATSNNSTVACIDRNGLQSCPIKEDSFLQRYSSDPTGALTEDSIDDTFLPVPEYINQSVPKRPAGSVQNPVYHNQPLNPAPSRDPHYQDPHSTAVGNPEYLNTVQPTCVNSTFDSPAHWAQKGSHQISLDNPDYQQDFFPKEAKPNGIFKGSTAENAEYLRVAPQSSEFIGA

SMILES | IC50 [2] [nM] | IC50 (pEGFR in CUTO14 cells) [nM] | IC50 (Ba/F3 cells with EGFR WT) [nM] | IC50 [1] [nM] | IC50 [3] [nM]
COc1c(F)cccc1Nc1c(-c2ccncc2OCC2CCc3nccn32)[nH]c2c1C(=O)NCC2 (stereo not drawn) [Compound 128, 2-(3-((6,7-dihydro-5H-pyrrolo[1,2-a]imidazol-5-yl)methoxy)pyridin-4-yl)-3-((3-fluoro-2-methoxyphenyl)amino)-1,5,6,7-tetrahydro-4H-pyrrolo[3,2-c]pyridin-4-one] | > 1000 | – | > 1000 | > 1000 | –
COc1c(F)cccc1Nc1c(-c2ccncc2OCc2nnc3n2CCC3)[nH]c2c1C(=O)NCC2 [Compound 131, 3-[(3-fluoro-2-methoxyphenyl)amino]-2-(3-[5H,6H,7H-pyrrolo[2,1-c][1,2,4]triazol-3-ylmethoxy]pyridin-4-yl)-1H,5H,6H,7H-pyrrolo[3,2-c]pyridin-4-one] | > 1000 | – | > 1000 | > 1000 | –
CCC(=O)N1CCC[C@H]1COc1cnccc1-c1[nH]c2c(c1Nc1cccc(Cl)c1OC)C(=O)NCC2 [Compound 139, (S)-3-((3-chloro-2-methoxyphenyl)amino)-2-(3-((1-propionylpyrrolidin-2-yl)methoxy)pyridin-4-yl)-1,5,6,7-tetrahydro-4H-pyrrolo[3,2-c]pyridin-4-one] | 100 to 1000 | – | > 1000 | > 1000 | > 1000
COc1c(Cl)cccc1Nc1c(-c2ccncc2OC[C@@H]2CCCN2C(C)=O)[nH]c2c1C(=O)NCC2 [Compound 141a, (S)-2-(3-((1-acetylpyrrolidin-2-yl)methoxy)pyridin-4-yl)-3-((3-chloro-2-methoxyphenyl)amino)-1,5,6,7-tetrahydro-4H-pyrrolo[3,2-c]pyridin-4-one] | 100 to 1000 | – | > 1000 | > 1000 | –
COc1c(F)cccc1Nc1c(-c2ccncc2OCn2nnc3ccccc32)[nH]c2c1C(=O)NCC2 [Compound 479, 2-[3-(1,2,3-benzotriazol-1-ylmethoxy)pyridin-4-yl]-3-[(3-fluoro-2-methoxyphenyl)amino]-1H,5H,6H,7H-pyrrolo[3,2-c]pyridin-4-one] | 100 to 1000 | – | > 1000 | > 1000 | –
C=CC(=O)N1CCC[C@@]1(C)C#Cc1cnccc1-c1[nH]c2c(c1Nc1cccc(F)c1OC)C(=O)NCC2 [compound 246, 3-[(3-fluoro-2-methoxyphenyl)amino]-2-(3-{2-[(2S)-2-methyl-1-(prop-2-enoyl)pyrrolidin-2-yl]ethynyl}pyridin-4-yl)-1H,5H,6H,7H-pyrrolo[3,2-c]pyridin-4-one] | < 100 | – | – | – | –
COc1c(Cl)cccc1Nc1c(-c2ccncc2OCc2ccco2)[nH]c2c1C(=O)NCC2 [compound 471, 3-[(3-chloro-2-methoxyphenyl)amino]-2-[3-(furan-2-ylmethoxy)pyridin-4-yl]-1H,5H,6H,7H-pyrrolo[3,2-c]pyridin-4-one] | > 1000 | – | – | – | –
COc1c(F)cccc1Nc1c(-c2ccncc2Oc2cnn(C)c2)[nH]c2c1C(=O)NCC2 [compound 484, 3-[(3-fluoro-2-methoxyphenyl)amino]-2-[3-[(1-methylpyrazol-4-yl)oxy]pyridin-4-yl]-1H,5H,6H,7H-pyrrolo[3,2-c]pyridin-4-one] | > 1000 | – | – | – | –
COc1c(Cl)cccc1Nc1c(-c2ccncc2C#C[C@H]2COCCN2C)[nH]c2c1C(=O)NCC2 [compound 494, 3-[(3-chloro-2-methoxyphenyl)amino]-2-(3-[2-[(3S)-4-methylmorpholin-3-yl]ethynyl]pyridin-4-yl)-1H,5H,6H,7H-pyrrolo[3,2-c]pyridin-4-one] | < 100 | – | – | – | –
C=CC(=O)N1CCOC[C@H]1C#Cc1cnccc1-c1[nH]c2c(c1Nc1cccc(Cl)c1OC)C(=O)NCC2 [compound 514, 3-[(3-chloro-2-methoxyphenyl)amino]-2-(3-{2-[(3R)-4-(prop-2-enoyl)morpholin-3-yl]ethynyl}pyridin-4-yl)-1H,5H,6H,7H-pyrrolo[3,2-c]pyridin-4-one] | < 100 | – | – | – | –
C=CC(=O)N1CCOC[C@@H]1C#Cc1cnccc1-c1[nH]c2c(c1Nc1cccc(Cl)c1OC)C(=O)NCC2 [compound 515, 3-[(3-chloro-2-methoxyphenyl)amino]-2-(3-{2-[(3S)-4-(prop-2-enoyl)morpholin-3-yl]ethynyl}pyridine-4-yl)-1H,5H,6H,7H-pyrrolo[3,2-c]pyridin-4-one] | < 100 | – | – | – | –
C=CC(=O)N1CCN(C)C[C@@H]1COc1cnccc1-c1[nH]c2c(c1Nc1cccc(F)c1OC)C(=O)NCC2 [compound 566] | – | > 1000 | > 1000 | 100 to 1000 | > 1000
C=C(F)C(=O)N1CC[C@@H]1COc1cnccc1-c1[nH]c2c(c1Nc1cccc(F)c1C)C(=O)NCC2 [compound 567] | – | < 100 | 100 to 1000 | < 100 | 100 to 1000
C=CC(=O)N1CCN(C)C[C@H]1COc1cnccc1-c1[nH]c2c(c1Nc1cccc(Cl)c1OC)C(=O)NCC2 [compound 568] | – | < 100 | 100 to 1000 | < 100 | < 100
C=CC(=O)N1CCN(C)C[C@H]1COc1cnccc1-c1[nH]c2c(c1Nc1cccc(F)c1OC)C(=O)NCC2 [compound 569] | – | < 100 | 100 to 1000 | < 100 | < 100

Further lines, with some results ahead:

IC50 [2] [nM] | IC50 (pEGFR in CUTO14 cells) [nM] | SMILES | IC50 (Ba/F3 cells with EGFR WT) [nM] | IC50 [1] [nM] | IC50 [3] [nM]
< 100 | – | C=CC(=O)N1CCC[C@@H]1COc1cnccc1-c1[nH]c2c(c1Nc1cccc(Cl)c1OC)C(=O)NCC2 [Compound 138a, 3-[(3-chloro-2-methoxyphenyl)amino]-2-(3-[[(2R)-1-(prop-2-enoyl)pyrrolidin-2-yl]methoxy]pyridin-4-yl)-1H,5H,6H,7H-pyrrolo[3,2-c]pyridin-4-one] | 100 to 1000 | < 100 | < 100
< 100 | – | C=CC(=O)N1CCC[C@H]1COc1cnccc1-c1[nH]c2c(c1Nc1cccc(Cl)c1OC)C(=O)NCC2 [Compound 138b, (S)-2-(3-((1-acryloylpyrrolidin-2-yl)methoxy)pyridin-4-yl)-3-((3-chloro-2-methoxyphenyl)amino)-1,5,6,7-tetrahydro-4H-pyrrolo[3,2-c]pyridin-4-one] | 100 to 1000 | < 100 | < 100
< 100 | – | COc1c(Cl)cccc1Nc1c(-c2ccncc2OC[C@H]2CCCN2C(C)=O)[nH]c2c1C(=O)NCC2 [Compound 141b, 2-(3-[[(2R)-1-acetylpyrrolidin-2-yl]methoxy]pyridin-4-yl)-3-[(3-chloro-2-methoxyphenyl)amino]-1H,5H,6H,7H-pyrrolo[3,2-c]pyridin-4-one] | > 1000 | > 1000 | –
< 100 | – | COc1c(Cl)cccc1Nc1c(-c2ccncc2OC[C@H]2CCCN2S(C)(=O)=O)[nH]c2c1C(=O)NCC2 [Compound 142b, 3-[(3-chloro-2-methoxyphenyl)amino]-2-(3-[[(2R)-1-methanesulfonylpyrrolidin-2-yl]methoxy]pyridin-4-yl)-1H,5H,6H,7H-pyrrolo[3,2-c]pyridin-4-one] | 100 to 1000 | < 100 | < 100
< 100 | – | COc1c(Cl)cccc1Nc1c(-c2ccncc2C#CC(C)(C)OC)[nH]c2c1C(=O)NCC2 [Compound 188, 3-((3-chloro-2-methoxyphenyl)amino)-2-(3-(3-methoxy-3-methylbut-1-yn-1-yl)pyridin-4-yl)-1,5,6,7-tetrahydro-4H-pyrrolo[3,2-c]pyridin-4-one] | < 100 | < 100 | 100 to 1000
< 100 | – | COc1c(F)cccc1Nc1c(-c2ccncc2OCc2nccn2C)[nH]c2c1C(=O)NCC2 [Compound 482, 3-[(3-fluoro-2-methoxyphenyl)amino]-2-[3-[(1-methylimidazol-2-yl)methoxy]pyridin-4-yl]-1H,5H,6H,7H-pyrrolo[3,2-c]pyridin-4-one] | > 1000 | 100 to 1000 | –
< 100 | – | COc1c(F)cccc1Nc1c(-c2ccncc2OCC2CCc3ncnn32)[nH]c2c1C(=O)NCC2 (stereo not drawn) [compound 133] | > 1000 | 100 to 1000 | –
< 100 | – | COc1c(Cl)cccc1Nc1c(-c2ccncc2OC[C@@H]2CCN2S(C)(=O)=O)[nH]c2c1C(=O)NCC2 [compound 192, 3-[(3-chloro-2-methoxyphenyl)amino]-2-(3-{[(2S)-1-methanesulfonylazetidin-2-yl]methoxy}pyridin-4-yl)-1H,5H,6H,7H-pyrrolo[3,2-c]pyridin-4-one] | – | – | –
< 100 | – | COc1c(Cl)cccc1Nc1c(-c2ccncc2OC[C@@H]2CN(C(C)=O)CCO2)[nH]c2c1C(=O)NCC2 [compound 195, 2-(3-{[(2S)-4-acetylmorpholin-2-yl]methoxy}pyridin-4-yl)-3-[(3-chloro-2-methoxyphenyl)amino]-1H,5H,6H,7H-pyrrolo[3,2-c]pyridin-4-one] | – | – | –
< 100 | – | C=CC(=O)N1CCC[C@H]1COc1cnccc1-c1[nH]c2c(c1Nc1cccc(F)c1OC)C(=O)NCC2 [compound 212, 3-[(3-fluoro-2-methoxyphenyl)amino]-2-(3-{[(2S)-1-(prop-2-enoyl)pyrrolidin-2-yl]methoxy}pyridine-4-yl)-1H,5H,6H,7H-pyrrolo[3,2-c]pyridin-4-one] | – | – | –

From US20230364070A1, “PYRROLO[3,2-C]PYRIDIN-4-ONE DERIVATIVES USEFUL IN THE TREATMENT OF CANCER” (Scorpion Therapeutics, Inc., priority 2020, published 2023)
